Measurements as given in PubChem BioAssay AID977621 (Broad Institute, 2014).
Records with an inconclusive call do not appear. Calls of active or inactive are those of the source.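 Rule for the calls: active = Wild-type ribosome reporter drop at least double the humanized mutant ribosome reporter drop, growth loss under a set limit; inconclusive = no clear call, values can overlap the other calls; inactive = the rest.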

Test system: E. coli wild-type GFP strain growth, fluorescence, 24 h
Experiment: growth inhibition of wild-type GFP E. coli, dose response, H69 mutant RFP, cherry-pick (AID 977621);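 note: wild-type GFP and H69 mutant RFP strains grown together 50/50 in each well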
[1] = E. coli mixed culture, 24 h, measured here: total growth OD600, test 2

Compound	AC50	AC50 [1]	AC50 (E. coli mixed culture, 24 h, measured here: total growth OD600, test 1)
Cn1cnc(CCNC(=O)C[C@H]2CC[C@@H]3[C@H](COC[C@H](O)CN3C(=O)Nc3ccc(Cl)cc3)O2)c1	> 100 µM (inactive)	–	–
Nc1nc(SCc2ccccc2)c2ncn(Cc3ccccc3)c2n1	> 100 µM (inactive)	41.2 µM	–
C[C@@H]1CCCCO[C@@H](CN(C)C(=O)c2ccccc2)[C@H](C)CN([C@@H](C)CO)C(=O)c2cc(NC(=O)Cc3ccccc3)ccc2O1	> 100 µM (inactive)	> 100 µM	–
Fc1cccc(CCN2C(=S)NC[C@@H]2CC2CCCCC2)c1	> 100 µM (inactive)	6.09 µM	–
C=CCn1c(CCSCc2ccc(OC)c(C)c2)n[nH]c1=S	> 100 µM (inactive)	33.6 µM	–
O=C(Cc1cccnc1)N1CC(=O)N2[C@H](C1)[C@@H](c1ccc(C3=CCCCC3)cc1)[C@@H]2CO	> 100 µM (inactive)	> 100 µM	–
CN1OC[C@@H]2CN(C(=O)c3ccco3)[C@H](c3ccc(-c4ccc(C#N)cc4)cc3)C[C@@H]21	–	> 100 µM	–
O=[N+]([O-])c1cncc([N+](=O)[O-])c1Nc1cccc(O)c1	> 100 µM (inactive)	–	–
Cc1cc(C)c(OCCNC(=O)c2ccccc2Sc2ccccc2C#N)c(C)c1	> 100 µM (inactive)	–	5.7 µM
COc1ccc(-c2cn3c(C)c(C(=O)Nc4cccc(C)n4)sc3n2)cc1	> 100 µM (inactive)	–	–
C=CCn1c(C)cc(C(=O)COC(=O)CNC(=O)c2ccccc2)c1C	–	44 µM	–
COc1ccc(-c2nnn(CC(=O)N3CCN(c4ccccc4OC)CC3)n2)cc1OC	> 100 µM (inactive)	–	–
COC(=O)CNC(=O)COC(=O)c1ccc(Cl)nc1	–	> 100 µM	–
CC(C)CN(C(=O)c1cc([N+](=O)[O-])cc([N+](=O)[O-])c1)C1CCS(=O)(=O)C1 (stereo not drawn)	–	> 100 µM	–
COc1ccc(NC(=O)c2oc3ccccc3c2NC(=O)C2CCCO2)cc1OC (stereo not drawn)	> 100 µM (inactive)	–	–
COCC#Cc1ccc2c(c1)O[C@@H](CN(C)S(=O)(=O)c1cccc(F)c1)[C@@H](C)CN([C@H](C)CO)S2(=O)=O	–	51.3 µM	–
NS(=O)(=O)c1cc(C(=O)OCC(=O)Nc2ccccc2[N+](=O)[O-])ccc1Cl	> 100 µM (inactive)	> 100 µM	–
CC1CCN(c2ccc3nnc(CCC(=O)Nc4cccc(F)c4)n3n2)CC1	> 100 µM (inactive)	> 100 µM	–
COc1ccccc1NC(=O)CN1CCSc2ccccc21	> 100 µM (inactive)	–	–
N#Cc1nc(-c2ccco2)oc1NCc1ccccc1Cl	–	49.6 µM	–
Cc1ccc(NC(=O)c2c(C)noc2-c2snnc2C)cc1	> 100 µM (inactive)	–	–
O=C(c1cnc(Cc2c[nH]c3ccccc23)c(I)c1)N1CCCCC1	–	29.6 µM	–
CCOC(=O)c1c(NC(=O)CN2CCC(C)CC2)sc(C)c1C	–	48.5 µM	–

Compound	AC50	AC50 [1]	AC50 (E. coli mixed culture, 24 h, measured here: total growth OD600, test 1)
Cc1c(C(=O)NCCSCc2cccc(C(F)(F)F)c2)cnn1-c1ccc(F)cc1	> 100 µM (inactive)	17.4 µM	–
O=C1NC(CCc2ccccc2)C(=O)N1Cc1cccc2ccccc12 (stereo not drawn)	–	50 µM	–
CC1=Nc2cc(C(=O)NCC3CCCO3)ccc2Sc2ccc(Br)cc21 (stereo not drawn)	> 100 µM (inactive)	–	–
Cc1ccccc1CSCC(=O)Nc1ccccc1F	> 100 µM (inactive)	–	–
Cc1ccc(Oc2ccc(S(=O)(=O)N3CCOCC3)cc2C(N)=O)cc1C	> 100 µM (inactive)	–	–
Cc1ccccc1OCc1nc2ccccc2n1C	> 100 µM (inactive)	–	–
CC(C)(C)c1ccc(CCC2OCC(CN3CCOCC3)O2)cc1 (stereo not drawn)	> 100 µM (inactive)	–	–
O=C(CCNC(=O)c1ccco1)Nc1cccc(Br)c1	–	> 100 µM	–
O=C(O)c1ccc(S(=O)(=O)N(Cc2ccc(F)cc2)C2CCCCC2)cc1	> 100 µM (inactive)	30.2 µM	–
NS(=O)(=O)c1cccc(NC(=O)c2cccc(-c3ccc(O)cc3)c2)c1	> 100 µM (inactive)	–	–
COc1cccc(OC)c1OCCCOc1cccc2cccnc12	> 100 µM (inactive)	–	–
Cc1c(Cc2ccccc2)sc(NC(=O)C(C)(C)C)c1C(N)=O	> 100 µM (inactive)	50.6 µM	–
CC(=O)OC(COc1cccc(C)c1)Cn1cnc2ccccc21 (stereo not drawn)	–	48.6 µM	–
COc1ccc(CCCc2nc3ccccc3[nH]2)cc1	–	> 100 µM	–
Cc1nn2c(NCc3ccccn3)cc(C(C)C)nc2c1-c1ccccc1	> 100 µM (inactive)	–	–
Cc1ccc(CSCC(=O)N(C)CC(=O)Nc2ccccc2Cl)cc1	> 100 µM (inactive)	–	–
C[C@@H]1CN([C@H](C)CO)C(=O)c2cccc(NC(=O)Nc3ccc4c(c3)OCO4)c2O[C@@H]1CN(C)C(=O)Nc1ccc2c(c1)OCO2	–	> 100 µM	–
Cc1ccc(C)c(N(CC(=O)NC2CCCC2)C(=O)c2oc(C(C)(C)C)cc2C)c1	> 100 µM (inactive)	> 100 µM	–
COc1ccccc1CC(=O)NCCc1c[nH]c2ccccc12	> 100 µM (inactive)	–	–
Cc1noc(C)c1NC(=O)Nc1ccc2c(c1)C(=O)N([C@H](C)CO)C[C@H](C)[C@H](CN(C)C(=O)Nc1ccc3c(c1)OCO3)OCCCC[C@H](C)O2	–	> 100 µM	–
COc1ccc(NC(=O)CCS(=O)(=O)c2ccccc2Cl)cc1S(=O)(=O)Nc1ccc(Cl)cc1	–	> 100 µM	–
O=C(COC(=O)C1CC2C=CC1C2)NCCc1ccccc1 (stereo not drawn)	–	> 100 µM	–
C=CCn1c(-c2cc3cccc(OC)c3o2)n[nH]c1=S	> 100 µM (inactive)	–	–
